According to ChEMBL document CHEMBL1141123, “Hydroxyethylene sulfones as a new scaffold to address aspartic proteases: design, synthesis, and structural characterization” (J Med Chem, 2005):
“And” between values parts separate entries of the source, which are not always exact repeats. Equal entries are not always repeated.

Tests used:
[1] = molecular target: T1, Human immunodeficiency virus type 1 protease (Human immunodeficiency virus 1, UniProt Q72874); assay: Inhibitory concentration against HIV-1 protease expressed in Escherichia coli upon incubation in pH 5.5 buffer containing Abz-Thr-Ile-p-nitrophenylalanine-Phe-Gln-Arg-NH2
[2] = molecular target: T1, Human immunodeficiency virus type 1 protease; assay: Binding affinity for HIV-1 protease expressed in Escherichia coli upon incubation in pH 5.5 buffer containing Abz-Thr-Ile-p-nitrophenylalanine-Phe-Gln-Arg-NH2
[3] = molecular target: Cathepsin D (Homo sapiens, UniProt P07339); assay: Binding affinity af the compound towards cathepsin D

`O=C(COc1ccc(Cl)cc1Cl)N[C@@H](Cc1cccc(Br)c1)[C@H](O)C[C@H](CCc1ccc(Cl)cc1Cl)S(=O)(=O)c1ccc(F)cc1` was tested, and the IC50 [1] was 10000 nM and the Ki [2] was 7000 nM.
In the case of `O=C(N[C@@H](Cc1cccc(Br)c1)[C@H](O)C[C@H](CCc1ccc(Cl)cc1Cl)S(=O)(=O)c1ccc(F)cc1)[C@H]1CCCO1`, the Ki [2] is reported as 3900 nM and 2900 nM.
Molecule `Cc1cccc(C)c1OCC(=O)N[C@@H](Cc1cccc(Br)c1)[C@H](O)C[C@H](CC(C)C)S(=O)(=O)c1ccc(N(C)C)cc1` has an IC50 [1] of 790 nM and a Ki [2] of 540 nM.
Molecule `COc1cc(Br)c(C(=O)N[C@@H](Cc2cccc(Br)c2)[C@H](O)C[C@H](CCc2ccc(Cl)cc2Cl)S(=O)(=O)c2ccc(F)cc2)cc1OC` has an IC50 [1] of 4500 nM and a Ki [2] of 3100 nM.
`COc1cc(Br)c(C(=O)N[C@@H](Cc2cccc(Oc3ccccc3)c2)[C@@H](O)CN(CCc2ccc(Cl)cc2Cl)C(=O)CCN2C(=O)c3ccccc3C2=O)cc1OC` showed a Ki [3] of 0.07 nM.
In the case of `O=C(N[C@H](Cc1cccc(Br)c1)[C@@H](O)C[C@@H](CCc1ccc(Cl)cc1Cl)S(=O)(=O)c1ccc(F)cc1)[C@H]1CCCO1`, the IC50 [1] is reported as greater than 40000 nM and the Ki [2] is reported as greater than 40000 nM.
In the case of `CNc1ccc(S(=O)(=O)[C@@H](CC(C)C)C[C@@H](O)[C@H](Cc2cccc(Br)c2)NC(=O)COc2c(C)cccc2C)cc1`, the IC50 [1] is reported as 530 nM and the Ki [2] is reported as 370 nM.
`CC(C)CN(C[C@@H](O)[C@H](Cc1ccccc1)NC(=O)O[C@H]1CCOC1)S(=O)(=O)c1ccc(N)cc1` [AMPRENAVIR] showed a Ki [2] of 0.06 nM.
`CC(C)CCS(=O)(=O)[C@@H](C)C[C@@H](O)[C@H](Cc1cccc(Br)c1)NC(=O)CCS(C)(=O)=O` showed an IC50 [1] greater than 40000 nM and a Ki [2] greater than 40000 nM.
For `Cc1cccc(C)c1OCC(=O)N[C@@H](Cc1cccc(Br)c1)[C@H](O)C[C@H](CC(C)C)S(=O)(=O)c1ccc(F)cc1`, the IC50 [1] was 140 nM and 85 nM and the Ki [2] was 80 nM and 45 nM.
Molecule `Cc1cccc(C)c1OCC(=O)N[C@H](Cc1cccc(Br)c1)[C@@H](O)C[C@@H](CC(C)C)S(=O)(=O)c1ccc(F)cc1` has an IC50 [1] of 2000 nM and a Ki [2] of 1400 nM.
